Source: PubChem BioAssay (NCI)
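Protocol summary: plate cells (96-well), add compound at 5 concentrations, incubate 48 h, interpolate endpoints linearly. GI50 = concentration required for 50% inhibition of growth. TGI: concentration producing complete growth inhibition.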

What was measured:
Experiment in all cases: NCI anticancer screen, dose series, 48 h
[1] = tested on: CCRF-CEM leukemia
[2] = tested on: DU-145 prostate
[3] = tested on: HL-60(TB) leukemia
[4] = tested on: MCF7 breast
[5] = tested on: MDA-MB-231 breast
[6] = tested on: MOLT-4 leukemia
[7] = tested on: SF-539 CNS
[8] = tested on: SK-MEL-5 melanoma
[9] = tested on: SR leukemia
[10] = tested on: UACC-257 melanoma

Row | Compound | GI50 [1] | TGI [1] | GI50 [2] | TGI [2] | GI50 [3] | TGI [3] | GI50 [4] | TGI [4] | GI50 [5] | TGI [5] | GI50 [6] | TGI [6] | GI50 [7] | TGI [7] | GI50 [8] | TGI [8] | GI50 [9] | TGI [9] | GI50 [10] | TGI [10]
1 | OC(CN1CCCC2CCCCC21)c1cc2ccccc2c2ccccc12 (stereo not drawn) | 1.87 µM | 5.2 µM | 3.73 µM | 14 µM | 2.02 µM | 3.76 µM | 1.84 µM | 3.51 µM | 1.69 µM | 4.06 µM | 1.81 µM | 4.79 µM | 1.99 µM | 4.74 µM | 1.67 µM | 3.05 µM | 1.6 µM | 3.43 µM | 1.96 µM | 4.73 µM
2 | Cn1c2c(c3ccccc3c1=O)C(=O)c1ccccc1-2 | – | > 100 µM | – | > 100 µM | – | > 100 µM | – | > 100 µM | – | > 100 µM | – | > 100 µM | – | 59.1 µM | – | > 100 µM | – | > 100 µM | – | > 100 µM
3 | O=C1CC(Cc2n[nH]c3c2CCCC3)CC(=O)N1 | – | > 100 µM | – | > 100 µM | – | > 100 µM | – | > 100 µM | – | > 100 µM | – | > 100 µM | – | > 100 µM | – | > 100 µM | – | > 100 µM | – | > 100 µM
4 | CC(=O)O[C@@H]1C2=C(C)C3(CC3)[C@@](C)(O)C(=O)C2=C[C@@]1(C)CO | 0.475 µM | > 22.5 µM | 0.342 µM | 3.14 µM | 0.414 µM | > 22.5 µM | 0.371 µM | 3.28 µM | 1.8 µM | 8.92 µM | 1.53 µM | > 100 µM | 1.02 µM | 3.38 µM | 1.73 µM | 3.2 µM | 0.271 µM | > 100 µM | 1.65 µM | 5.38 µM
5 | COc1cc2c(NC3CCN(C(C)C)CC3)nc(C3CCCCC3)nc2cc1OCCCN1CCCC1 | 2.44 µM | 6.88 µM | 4.75 µM | 17.1 µM | 3.03 µM | 10.9 µM | 2.64 µM | 14.4 µM | 2.61 µM | 9.44 µM | 3.38 µM | 11.6 µM | 1.79 µM | 3.48 µM | 1.68 µM | 3.11 µM | 3.25 µM | 10.2 µM | 1.67 µM | 3.25 µM
6 | CSc1nnc(-c2cc3c([nH]c4ccccc43)c(-c3cccc(O)c3)n2)n1-c1ccc(C)cc1 | 9.4 µM | > 100 µM | 4.57 µM | 77.6 µM | 3.02 µM | > 100 µM | 2.5 µM | > 100 µM | 3.31 µM | 15.8 µM | 3.65 µM | > 100 µM | 2.81 µM | 14.1 µM | 2.38 µM | 11.5 µM | 2.09 µM | > 100 µM | 5 µM | 44.7 µM
7 | COc1c(B(O)O)cccc1-c1nc2ccc3[nH]ncc3c2c2c1CCCC2 | 0.544 µM | > 49.7 µM | 2.23 µM | 25.9 µM | 0.658 µM | 4.87 µM | 2.04 µM | 13 µM | 0.0201 µM | 25.1 µM | 1.57 µM | > 34.6 µM | 0.133 µM | 2.81 µM | 3.18 µM | 12.5 µM | 1.13 µM | 13.9 µM | 2.88 µM | 24.6 µM
8 | O=C1C(Cl)=C(Nc2cc(Cl)ccc2O)C(=O)N1Cc1ccccc1 | 12.5 µM | 54.9 µM | 18 µM | 33.5 µM | 25.6 µM | 67.1 µM | 21 µM | 52.9 µM | 17.5 µM | 33.2 µM | 29.7 µM | > 81.9 µM | 20 µM | 36.3 µM | 16.1 µM | 29.9 µM | 38.6 µM | > 67.7 µM | 14.1 µM | 28.3 µM
9 | Cc1nc2sc(C(=O)Nc3ccccc3)c(N)c2cc1C(O)c1ccccc1 (stereo not drawn) | 0.234 µM | – | 0.362 µM | 20.9 µM | 0.234 µM | 0.657 µM | 0.091 µM | 19.1 µM | 0.411 µM | > 64.6 µM | 0.367 µM | 25.5 µM | 0.219 µM | 0.638 µM | 0.338 µM | 1.63 µM | 0.0434 µM | > 30.5 µM | 4.21 µM | > 52 µM
10 | O=C(CSC(c1ccccc1)c1ccccc1)N/N=C/c1ccccc1Cl | 17.4 µM | 43.2 µM | 50.6 µM | > 100 µM | – | 8.46 µM | 11.2 µM | > 52.8 µM | 1.46 µM | 11.5 µM | 6.33 µM | 40.2 µM | 29 µM | > 90.2 µM | 21 µM | 47.2 µM | 9.48 µM | 26.7 µM | 7.05 µM | 63.8 µM
11 | CC(C)c1[nH]nc2c(NCc3ccc(-c4ccccn4)cc3)nc(SCCN(C)C)nc12 | 0.0246 µM | 4.87 µM | 0.138 µM | 12.4 µM | < 0.0156 µM | 0.0313 µM | < 0.0218 µM | 10.5 µM | 0.0257 µM | 8.3 µM | < 0.0178 µM | 0.202 µM | 0.0745 µM | 0.242 µM | 0.153 µM | 0.552 µM | < 0.0294 µM | 3.21 µM | 0.017 µM | 0.0826 µM
12 | CCC[n+]1cc2cc3c(cc2c2c1-c1cc4c(cc1C2)OCO4)OCO3 (tested in a mixture with another compound) | 2.38 µM | 15 µM | 1.27 µM | 7.73 µM | 2.98 µM | 14.8 µM | 0.468 µM | 6.34 µM | 2.39 µM | 12.1 µM | 0.251 µM | 3.03 µM | 0.425 µM | 2.88 µM | 0.371 µM | 1.6 µM | 0.287 µM | 1.75 µM | 0.706 µM | 3.16 µM
13 | COC(=O)c1c2c(c(C)[n+]([O-])c1C)C(=O)C(NCc1ccc(F)cc1)=CC2=O | 2.34 µM | 8.36 µM | 2.11 µM | 4.76 µM | 0.745 µM | 3.6 µM | 1.11 µM | 2.86 µM | 1.46 µM | 4.36 µM | 1.98 µM | 5.33 µM | 1.72 µM | 3.15 µM | 0.3 µM | 1 µM | 1.7 µM | > 100 µM | 0.845 µM | 2.44 µM
14 | CN(C)c1cc2c(Nc3ccc4c(cnn4Cc4ccccc4)c3)ncnc2cn1 | 10.3 µM | > 25 µM | 5.54 µM | > 25 µM | 8.93 µM | 23.8 µM | 16.5 µM | > 25 µM | 6.1 µM | > 25 µM | 9.47 µM | > 25 µM | 10.1 µM | > 25 µM | 7.61 µM | > 20.5 µM | 12.8 µM | > 25 µM | 13.2 µM | > 25 µM
15 | Cc1c(NC(=O)Nc2c(Cl)cccc2Cl)c(=O)n(-c2ccccc2)n1C | – | > 100 µM | – | > 100 µM | – | > 100 µM | – | > 100 µM | – | > 100 µM | – | > 100 µM | – | > 100 µM | – | > 100 µM | – | > 100 µM | – | > 100 µM
16 | O=C(NCc1ccco1)C1CCN(S(=O)(=O)c2ccc(Cl)cc2)CC1 | 83.8 µM | > 100 µM | > 100 µM | > 100 µM | > 100 µM | > 100 µM | 37.8 µM | > 100 µM | > 100 µM | > 100 µM | 74.1 µM | > 100 µM | > 100 µM | > 100 µM | 53.5 µM | > 100 µM | 72.8 µM | > 100 µM | > 100 µM | > 100 µM
